# From PubChem BioAssay (NCI)
#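 Dose response: 5 concentrations. Exposure: 48 h. Format: 96-well plates. Endpoint: linear interpolation; highest concentration if not reached. GI50 is the concentration that inhibits growth by half. TGI marks complete inhibition of growth.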
# Legend:
# Experiment in all cases: inhibition of tumour cell growth, NCI panel, 48 h
# 786-0 renal = system: 786-0 renal
# A498 renal = system: A498 renal
# A549 NSCLC = system: A549 NSCLC
# ACHN renal = system: ACHN renal
# BT-549 breast = system: BT-549 breast
# CCRF-CEM leukemia = system: CCRF-CEM leukemia
# COLO 205 colon = system: COLO 205 colon
# DU-145 prostate = system: DU-145 prostate
# EKVX NSCLC = system: EKVX NSCLC
# HCC-2998 colon = system: HCC-2998 colon
# HCT-116 colon = system: HCT-116 colon
# HCT-15 colon = system: HCT-15 colon
# HL-60(TB) leukemia = system: HL-60(TB) leukemia
# HOP-62 NSCLC = system: HOP-62 NSCLC
# HOP-92 NSCLC = system: HOP-92 NSCLC
# HT29 colon = system: HT29 colon
# IGROV1 ovarian = system: IGROV1 ovarian
# K-562 leukemia = system: K-562 leukemia
# KM12 colon = system: KM12 colon
# LOX IMVI melanoma = system: LOX IMVI melanoma
# M14 melanoma = system: M14 melanoma
# MALME-3M melanoma = system: MALME-3M melanoma
# MCF7 breast = system: MCF7 breast
# MDA-MB-231 breast = system: MDA-MB-231 breast
# MDA-MB-435 = system: MDA-MB-435
# MOLT-4 leukemia = system: MOLT-4 leukemia
# NCI-H226 lung = system: NCI-H226 lung
# NCI-H23 lung = system: NCI-H23 lung
# NCI-H460 lung = system: NCI-H460 lung
# NCI/ADR-RES ovarian = system: NCI/ADR-RES ovarian
# OVCAR-4 ovarian = system: OVCAR-4 ovarian
# OVCAR-5 ovarian = system: OVCAR-5 ovarian
# OVCAR-8 ovarian = system: OVCAR-8 ovarian
# PC-3 prostate = system: PC-3 prostate
# RPMI-8226 leukemia = system: RPMI-8226 leukemia
# RXF 393 renal = system: RXF 393 renal
# SF-268 CNS = system: SF-268 CNS
# SF-295 CNS = system: SF-295 CNS
# SF-539 CNS = system: SF-539 CNS
# SK-MEL-2 melanoma = system: SK-MEL-2 melanoma
# SK-MEL-28 melanoma = system: SK-MEL-28 melanoma
# SK-MEL-5 melanoma = system: SK-MEL-5 melanoma
# SK-OV-3 ovarian = system: SK-OV-3 ovarian
# SN12C renal = system: SN12C renal
# SNB-19 CNS = system: SNB-19 CNS
# SNB-75 CNS = system: SNB-75 CNS
# SR leukemia = system: SR leukemia
# SW-620 colon = system: SW-620 colon
# T-47D breast = system: T-47D breast
# TK-10 renal = system: TK-10 renal
# U251 CNS = system: U251 CNS
# UACC-62 melanoma = system: UACC-62 melanoma
# UO-31 renal = system: UO-31 renal
# CAKI-1 renal = system: CAKI-1 renal
# HS 578T breast = system: HS 578T breast
# NCI-H522 lung = system: NCI-H522 lung
# OVCAR-3 ovarian = system: OVCAR-3 ovarian
# UACC-257 melanoma = system: UACC-257 melanoma
structure (smiles),measurement,setting,value
COc1ccc(NC(=O)c2cc(OC)c(OC)c(OC)c2)cc1O,GI50,786-0 renal,45.7 µM
same,TGI,786-0 renal,> 100 µM
same,GI50,A498 renal,2.73 µM
same,TGI,A498 renal,32.9 µM
same,GI50,A549 NSCLC,4.59 µM
same,TGI,A549 NSCLC,> 100 µM
same,GI50,ACHN renal,13.6 µM
same,TGI,ACHN renal,> 100 µM
same,GI50,BT-549 breast,21.7 µM
same,TGI,BT-549 breast,> 100 µM
same,GI50,CCRF-CEM leukemia,4.13 µM
same,TGI,CCRF-CEM leukemia,> 100 µM
same,GI50,COLO 205 colon,4.45 µM
same,TGI,COLO 205 colon,> 100 µM
same,GI50,DU-145 prostate,3.96 µM
same,TGI,DU-145 prostate,> 100 µM
same,GI50,EKVX NSCLC,> 100 µM
same,TGI,EKVX NSCLC,> 100 µM
same,GI50,HCC-2998 colon,14.6 µM
same,TGI,HCC-2998 colon,> 100 µM
same,GI50,HCT-116 colon,4.21 µM
same,TGI,HCT-116 colon,> 100 µM
same,GI50,HCT-15 colon,1.46 µM
same,TGI,HCT-15 colon,> 100 µM
same,GI50,HL-60(TB) leukemia,1.08 µM
same,TGI,HL-60(TB) leukemia,21.6 µM
same,GI50,HOP-62 NSCLC,5.36 µM
same,TGI,HOP-62 NSCLC,> 100 µM
same,GI50,HOP-92 NSCLC,0.861 µM
same,TGI,HOP-92 NSCLC,> 100 µM
same,GI50,HT29 colon,3.21 µM
same,TGI,HT29 colon,11.6 µM
same,GI50,IGROV1 ovarian,8.86 µM
same,TGI,IGROV1 ovarian,> 100 µM
same,GI50,K-562 leukemia,0.489 µM
same,TGI,K-562 leukemia,> 100 µM
same,GI50,KM12 colon,0.792 µM
same,TGI,KM12 colon,> 100 µM
same,GI50,LOX IMVI melanoma,8.33 µM
same,TGI,LOX IMVI melanoma,> 100 µM
same,GI50,M14 melanoma,2.91 µM
same,TGI,M14 melanoma,> 100 µM
same,GI50,MALME-3M melanoma,29.4 µM
same,TGI,MALME-3M melanoma,> 100 µM
same,GI50,MCF7 breast,2.58 µM
same,TGI,MCF7 breast,> 100 µM
same,GI50,MDA-MB-231 breast,6.79 µM
same,TGI,MDA-MB-231 breast,> 100 µM
same,GI50,MDA-MB-435,0.241 µM
same,TGI,MDA-MB-435,0.872 µM
same,GI50,MOLT-4 leukemia,3.42 µM
same,TGI,MOLT-4 leukemia,> 100 µM
same,GI50,NCI-H226 lung,13.8 µM
same,TGI,NCI-H226 lung,> 100 µM
same,GI50,NCI-H23 lung,5.32 µM
same,TGI,NCI-H23 lung,> 100 µM
same,GI50,NCI-H460 lung,3 µM
same,TGI,NCI-H460 lung,> 100 µM
same,GI50,NCI/ADR-RES ovarian,1.13 µM
same,TGI,NCI/ADR-RES ovarian,> 100 µM
same,GI50,OVCAR-4 ovarian,15.3 µM
same,TGI,OVCAR-4 ovarian,> 100 µM
same,GI50,OVCAR-5 ovarian,40.1 µM
same,TGI,OVCAR-5 ovarian,> 100 µM
same,GI50,OVCAR-8 ovarian,4.98 µM
same,TGI,OVCAR-8 ovarian,> 100 µM
same,GI50,PC-3 prostate,2.52 µM
same,TGI,PC-3 prostate,> 100 µM
same,GI50,RPMI-8226 leukemia,5.93 µM
same,TGI,RPMI-8226 leukemia,> 100 µM
same,GI50,RXF 393 renal,3.75 µM
same,TGI,RXF 393 renal,83.9 µM
same,GI50,SF-268 CNS,5.43 µM
same,TGI,SF-268 CNS,> 100 µM
same,GI50,SF-295 CNS,2.78 µM
same,TGI,SF-295 CNS,> 100 µM
same,GI50,SF-539 CNS,2.75 µM
same,TGI,SF-539 CNS,> 100 µM
same,GI50,SK-MEL-2 melanoma,2.58 µM
same,TGI,SK-MEL-2 melanoma,> 100 µM
same,GI50,SK-MEL-28 melanoma,28.1 µM
same,TGI,SK-MEL-28 melanoma,> 100 µM
same,GI50,SK-MEL-5 melanoma,1.43 µM
same,TGI,SK-MEL-5 melanoma,48.6 µM
same,GI50,SK-OV-3 ovarian,4.95 µM
same,TGI,SK-OV-3 ovarian,> 100 µM
same,GI50,SN12C renal,7.99 µM
same,TGI,SN12C renal,> 100 µM
same,GI50,SNB-19 CNS,4.73 µM
same,TGI,SNB-19 CNS,> 100 µM
same,GI50,SNB-75 CNS,1.56 µM
same,TGI,SNB-75 CNS,> 100 µM
same,GI50,SR leukemia,0.313 µM
same,TGI,SR leukemia,> 100 µM
same,GI50,SW-620 colon,1.11 µM
same,TGI,SW-620 colon,> 100 µM
same,GI50,T-47D breast,9.89 µM
same,TGI,T-47D breast,> 100 µM
same,GI50,TK-10 renal,> 100 µM
same,TGI,TK-10 renal,> 100 µM
same,GI50,U251 CNS,3.71 µM
same,TGI,U251 CNS,> 100 µM
same,GI50,UACC-62 melanoma,2.66 µM
same,TGI,UACC-62 melanoma,> 100 µM
same,GI50,UO-31 renal,18.1 µM
same,TGI,UO-31 renal,> 100 µM
CSCCC(NC(c1ccccc1)c1ccccc1)[P+](=O)O (centres undefined),TGI,786-0 renal,> 100 µM
same,TGI,A549 NSCLC,> 100 µM
same,TGI,ACHN renal,> 100 µM
same,TGI,BT-549 breast,> 100 µM
same,TGI,CAKI-1 renal,> 100 µM
same,TGI,CCRF-CEM leukemia,> 100 µM
same,TGI,COLO 205 colon,> 100 µM
same,TGI,DU-145 prostate,> 100 µM
same,TGI,EKVX NSCLC,> 100 µM
same,TGI,HCT-116 colon,> 100 µM
same,TGI,HCT-15 colon,> 100 µM
same,TGI,HL-60(TB) leukemia,> 100 µM
same,TGI,HOP-62 NSCLC,> 100 µM
same,TGI,HOP-92 NSCLC,> 100 µM
same,TGI,HS 578T breast,> 100 µM
same,TGI,HT29 colon,> 100 µM
same,TGI,IGROV1 ovarian,> 100 µM
same,TGI,K-562 leukemia,> 100 µM
same,TGI,KM12 colon,> 100 µM
same,TGI,LOX IMVI melanoma,> 100 µM
same,TGI,M14 melanoma,> 100 µM
same,TGI,MALME-3M melanoma,> 100 µM
same,TGI,MCF7 breast,> 100 µM
same,TGI,MDA-MB-435,> 100 µM
same,TGI,MOLT-4 leukemia,> 100 µM
same,TGI,NCI-H226 lung,> 100 µM
same,TGI,NCI-H23 lung,> 100 µM
same,TGI,NCI-H460 lung,> 100 µM
same,TGI,NCI-H522 lung,> 100 µM
same,TGI,NCI/ADR-RES ovarian,> 100 µM
same,TGI,OVCAR-3 ovarian,> 100 µM
same,TGI,OVCAR-4 ovarian,> 100 µM
same,TGI,OVCAR-5 ovarian,> 100 µM
same,TGI,OVCAR-8 ovarian,> 100 µM
same,TGI,PC-3 prostate,> 100 µM
same,TGI,RPMI-8226 leukemia,> 100 µM
same,TGI,SF-268 CNS,> 100 µM
same,TGI,SF-295 CNS,> 100 µM
same,TGI,SK-MEL-2 melanoma,> 100 µM
same,TGI,SK-MEL-28 melanoma,> 100 µM
same,TGI,SK-MEL-5 melanoma,> 100 µM
same,TGI,SK-OV-3 ovarian,> 100 µM
same,TGI,SN12C renal,> 100 µM
same,TGI,SNB-19 CNS,> 100 µM
same,TGI,SNB-75 CNS,> 100 µM
same,TGI,SR leukemia,> 100 µM
same,TGI,SW-620 colon,> 100 µM
same,TGI,T-47D breast,> 100 µM
same,TGI,TK-10 renal,> 100 µM
same,TGI,U251 CNS,> 100 µM
same,TGI,UACC-257 melanoma,> 100 µM
same,TGI,UACC-62 melanoma,> 100 µM
same,TGI,UO-31 renal,> 100 µM
